# In the supplement of paper PMC10307832:
# Tests used:
# Experiment in all cases: relative viability (nuclei count vs DMSO), 5 days (fraction); higher = more cells survive
# [1] = compound: C[C@]1(O)C[C@@H](c2nc(-c3ccc4ccc(-c5ccccc5)nc4c3)c3c(N)nccn32)C1 [Linsitinib]
# Procedure, shortened: (§1)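 Only plates meeting two conditions passed: control CV below 25% and at least one doubling. Lung cancer cell lines, kept overnight at 37 °C in 1536-well plates, were pinned with five library-drug doses (not always all listed) √10 apart on vehicle-anchored plates and grown 5 days without medium change. A one-step fix, permeabilisation and Hoechst stain preceded 4× imaging and MetaXpress nuclear counting. Viability equals treated-well nuclei divided by vehicle-well nuclei, as the median over plates.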
# [2] = compound: Cc1ccc(C(=O)N(CCCN)[C@@H](c2nc3cc(Cl)ccc3c(=O)n2Cc2ccccc2)C(C)C)cc1 [Ispinesib]
# Procedure, shortened: as §1
# [3] = compound: C[C@]1(O)C[C@@H](c2nc(-c3ccc4ccc(-c5ccccc5)nc4c3)c3c(N)nccn32)C1 [Linsitinib] + N=C(N)NC(=N)NCCc1ccccc1 [Phenformin] (partner 250 µM)
# Procedure, shortened: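 For relative viability, nuclei counts in treated wells were divided by those in vehicle wells. Lung cancer cell lines had been pin-tool dosed in 1536-well plates the day after seeding and cultured for 5 days, then fixed and stained in one step (final 0.05% Triton X-100, 1% formaldehyde, 1 ug/ml Hoechst) and imaged at 4×. Doses were one drug alone or a fixed anchor-drug dose plus five library-drug doses (not always all listed) in √10 steps, and values are duplicate-plate medians.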
Cell Line,relative viability ([1]; 0.01 µM),relative viability ([1]; 0.03162 µM),relative viability ([1]; 0.1 µM),relative viability ([1]; 0.3162 µM),relative viability ([1]; 1 µM),"relative viability ([1]; 1 µM, anchor plate)",relative viability ([2]; 0.001 µM),relative viability ([2]; 0.003162 µM),relative viability ([2]; 0.01 µM),relative viability ([2]; 0.03162 µM),relative viability ([2]; 0.1 µM),relative viability ([3]; first compound 0.01 µM),relative viability ([3]; first compound 0.03162 µM),relative viability ([3]; first compound 0.1 µM),relative viability ([3]; first compound 0.3162 µM),relative viability ([3]; first compound 1 µM)
HCC-366,1,0.989,0.925,0.917,0.938,0.658,1.03,1.03,1.08,0.935,0.0315,0.612,0.604,0.598,0.574,0.377
EKVX,0.99,0.991,0.999,0.739,0.832,1.01,0.996,0.993,1.07,0.856,0.573,0.278,0.21,0.235,0.216,0.224
NCI-H1993,1.03,0.916,0.879,0.622,0.607,0.759,0.959,1.05,1.05,0.912,0.651,0.523,0.465,0.572,0.526,0.526
NCI-H2342,0.889,1.07,0.86,1.01,0.768,–,0.986,0.942,1.04,0.935,0.638,0.46,0.584,0.527,0.511,0.488
NCI-H1703,0.881,–,0.873,0.577,0.492,0.9,1.28,0.88,0.6,0.163,0.137,–,–,–,–,–
NCI-H23,1.06,0.862,0.903,0.509,0.578,0.631,0.859,1.06,1.04,0.298,0.226,0.821,0.863,0.764,0.53,0.503
HCC-827,1.06,1.02,1.09,–,1.01,0.967,1.08,1.07,1.02,0.929,0.876,0.423,0.433,0.418,–,0.385
PC-3 [JPC-3],1.04,1.06,1.1,0.947,0.916,0.949,1.06,1.15,1.09,0.909,0.533,0.464,0.48,0.515,0.436,0.45
NCI-H1355,1.02,0.984,0.947,0.787,0.615,0.848,1.08,1.06,1.09,0.728,0.274,0.452,0.447,0.393,0.32,0.304
NCI-H727,0.961,0.866,0.895,0.461,0.591,0.305,1.16,1.09,1.14,0.845,0.543,0.562,0.489,0.483,0.503,0.422
IA-LM,1.01,0.983,0.824,0.802,0.646,0.619,1.02,1.15,1.22,0.952,0.197,–,–,–,–,–
NCI-H1975,0.939,0.927,0.869,0.835,0.775,0.984,1,0.952,1,0.742,0.184,0.396,0.417,0.413,0.38,0.396
NCI-H460,0.966,0.927,0.977,0.872,0.949,0.789,1.03,1.03,1.14,0.935,0.0826,0.511,0.44,0.521,0.394,0.342
EPLC-272H,1.02,1.01,0.799,–,0.879,1.19,0.868,1.04,0.909,0.342,0.151,0.369,0.335,–,–,0.312
NCI-H522,0.969,0.927,0.838,0.742,0.872,–,0.965,1.13,1,0.815,0.48,0.589,0.662,0.567,–,0.613
SW 900,0.885,0.986,0.862,0.538,0.477,–,0.858,0.995,1.05,0.683,0.283,0.701,0.753,0.553,0.433,0.37
SK-LU-1,1.01,0.859,1.03,0.6,0.967,0.999,1.15,1.15,1.16,0.881,0.592,0.558,–,0.588,0.391,0.325
NCI-H322M,0.954,0.993,0.95,0.814,0.701,0.95,1.13,0.945,0.914,0.472,0.58,0.832,0.765,0.814,0.545,0.552
NCI-H2405,0.93,0.966,1,0.821,0.678,0.891,1.05,1.05,1.05,0.884,0.561,0.406,0.446,0.384,0.377,0.292
NCI-H1648,1.11,0.972,0.868,0.345,0.8,–,1.02,1.13,0.792,1.14,0.387,–,–,–,–,–
Calu-6,0.946,0.892,1.01,0.862,0.857,0.96,1.15,0.996,0.689,0.18,0.19,–,–,–,–,–
NCI-H1299,1.01,0.999,1.02,0.918,1.02,0.977,1.05,1.05,1.07,1.05,0.461,–,–,–,–,–
EBC-1,0.991,0.967,1.05,0.778,0.93,0.903,1.03,1.13,1.03,0.336,0.231,–,–,–,–,–
